One block for each compound: values may come before it. Calls of active or inactive are those of the source. No cut-off for these calls is given here.
Tests used:
[1] = tested on: Escherichia coli; assay: Antibacterial activity against Escherichia coli ATCC 25922 up to 24 ug by bioautographic test; format: functional, organism-based
[2] = tested on: Bacillus subtilis; assay: Antibacterial activity against Bacillus subtilis ATCC 6633 up to 24 ug by bioautographic test; format: functional, organism-based
[3] = tested on: Micrococcus luteus; assay: Antibacterial activity against Micrococcus luteus ATCC 9341 up to 24 ug by bioautographic test; format: functional, organism-based
[4] = tested on: Artemia salina; assay: Toxicity against Artemia salina assessed as mortality; format: organism-based; details: in vivo
[5] = tested on: Penicillium oxalicum; assay: Antifungal activity against Penicillium oxalicum CBS 219.30 by bioautographic test; format: functional
[6] = tested on: Biomphalaria glabrata; assay: Molluscicidal activity in Biomphalaria glabrata assessed as mortality at 6 ppm; format: functional, organism-based
[7] = tested on: Biomphalaria glabrata; assay: Molluscicidal activity in Biomphalaria glabrata assessed as mortality at 5 ppm; format: functional
[8] = Toxicity against Artemia salina assessed as mortality at 120 ug/ml; format: organism-based; details: in vivo, read-out: Activity
[9] = Toxicity against Artemia salina assessed as mortality at 12 ug/ml; format: organism-based; details: in vivo, read-out: Activity
[10] = Toxicity against Artemia salina assessed as mortality at 10 ug/ml; format: organism-based; details: in vivo, read-out: Activity
[11] = Toxicity against Artemia salina assessed as mortality at 100 ug/ml; format: organism-based; details: in vivo, read-out: Activity
[12] = tested on: Biomphalaria glabrata; assay: Molluscicidal activity in Biomphalaria glabrata assessed as mortality at 2.5 ppm; format: functional

- MIC [5]: 0.1 µg
Structure (SMILES): C[C@@](Cl)(/C=C/Br)[C@@H](Cl)/C=C/C(Cl)(CCl)CBr (stereo partly specified)
- Activity [1]: inactive
- Activity [2]: inactive
- Activity [3]: inactive
- Activity [4]: Not Active
- Activity [6]: inactive

Structure (SMILES): C[C@]1(Cl)C[C@](C)(/C=C/Cl)[C@H](Br)C[C@@H]1Cl
- Activity [7]: 100%
- mortality at 120 ug/ml [8]: 100%
- Activity [1]: inactive
- Activity [2]: inactive
- Activity [3]: inactive
- MIC [5]: 0.6 µg
- mortality at 12 ug/ml [9]: 26%

- MIC [5]: 0.1 µg
Structure (SMILES): C=C(/C=C/[C@@H](Cl)[C@](C)(Cl)/C=C/Br)CCl (relative stereo)
- Activity [1]: inactive
- Activity [2]: inactive
- Activity [3]: inactive
- Activity [4]: Not Active
- Activity [6]: inactive

Structure (SMILES): C[C@]1(Cl)C[C@](C)(Br)[C@@H](/C=C/Cl)C[C@H]1Br
- mortality at 10 ug/ml [10]: 20%
- Activity [1]: inactive
- mortality at 100 ug/ml [11]: 100%
- Activity [2]: inactive
- Activity [3]: inactive
- MIC [5]: 10 µg
- Activity [12]: 100%

Reference: ChEMBL document CHEMBL1158933, “A new polyhalogenated monoterpene from the red alga Plocamium cartilagineum” (J Nat Prod, 1990)
